The values that follow come from patent publication US20260034123A1 (Cedilla Therapeutics, Inc., priority 2022, published 2026).

One assay has as its target CDK2/Cyclin E1 (Homo sapiens, UniProt P24941). Put plainly: ADP-Glo Luminescent Kinase Assay (CDK2/E1-37C). It counts as biochemical. To be noted: 0.18 nM CDK2/Cyclin E1, 100 μM ATP, Histone H1, 37° C.; read-out: ADPGLO (CDK2/E1-37C): IC50. In a few lines: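 Activated CDK2/Cyclin E1 (0.18 nM final) preincubated with compound 60 min at 37 °C, then reacted with 100 μM ATP and Histone H1 ([…]) for 90 min at 37 °C in HEPES pH 7.5 buffer. ADP-Glo luminescence normalized to % activity; IC50 from four-parameter fit.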

In a further assay the test system is Kuramochi cells RB-WT. Put plainly: IncuCyte Kuramochi cell proliferation assay, RB-WT. The assay is classed as cell-based. To be noted: 72 hours, cell count. The procedure, abridged: (§1)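 mApple-H2B-labelled Kuramochi cells were treated with a 10-point, half-log series (top 20 µM) and imaged at 0 and 72 h. Fluorescent nuclei were counted, and the 0–72 h fold change was normalized to DMSO wells. GI50 came from dose-response fits.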

The next assay concerns Kuramochi cells RB-KO. Put plainly: IncuCyte Kuramochi cell proliferation assay, RB-KO. It counts as cell-based. The following applies: 72 hours, cell count, batch mean. In a few lines:
as §1

As for `O=C(O)c1c(COCC2CN(c3ncnc4ncsc34)CC23CN(C(=O)C2(C(F)(F)F)CC2)C3)cccc1C1CCC(F)(F)CC1` (stereo not drawn) [I′-64, 2-(4,4-difluorocyclohexyl)-6-(((6-(thiazolo[4,5-d]pyrimidin-7-yl)-2-(1-(trifluoromethyl)cyclopropane-1-carbonyl)-2,6-diazaspiro[3.4]octan-8-yl)methoxy)methyl)benzoic acid], the values for the IC50 on CDK2/Cyclin E1, in the assay with Kuramochi cells RB-WT and in the assay with Kuramochi cells RB-KO were at most 0.5 µM, 0.5 to 5 µM and 0.5 to 5 µM, respectively.
For `CN(C)S(=O)(=O)NC(=O)c1c(COC[C@@H]2CN(C(=O)c3cnn(Cc4ccc(F)cc4)c3)CC23CN(C(=O)[C@H]2CC2(C)C)C3)cccc1C1CCC(F)(F)CC1` [I′-65, 2-(4,4-difluorocyclohexyl)-6-((((S)-2-((S)-2,2-dimethylcyclopropane-1-carbonyl)-6-(1-(4-fluorobenzyl)-1H-pyrazole-4-carbonyl)-2,6-diazaspiro[3.4]octan-8-yl)methoxy)methyl)-N—(N,N-dimethylsulfamoyl)benzamide], the IC50 is at most 0.5 µM at CDK2/Cyclin E1, above 10 µM in the assay with Kuramochi cells RB-WT and above 10 µM with Kuramochi cells RB-KO.
In the case of `CC(C)(C(=O)N1CC2(CN(C(=O)c3cnn(Cc4ccc(F)cc4)c3)C[C@H]2COCc2cccc(-c3ccc(C(F)(F)F)s3)c2C(=O)O)C1)C(F)(F)F` [I′-66, (S)-2-(((6-(1-(4-fluorobenzyl)-1H-pyrazole-4-carbonyl)-2-(3,3,3-trifluoro-2,2-dimethylpropanoyl)-2,6-diazaspiro[3.4]octan-8-yl)methoxy)methyl)-6-(5-(trifluoromethyl)thiophen-2-yl)benzoic acid], the IC50 at CDK2/Cyclin E1 is at most 0.5 µM; with Kuramochi cells RB-WT, at most 0.5 µM; with Kuramochi cells RB-KO, above 10 µM.
For `COc1ccc(C2CCC(F)(F)CC2)c(C(=O)O)c1COCC1CN(C(=O)c2cnn(Cc3ccc(F)cc3)c2)CC12CN(C(=O)C1(C(F)(F)F)CC1)C2` (stereo not drawn) [I′-67], the values for the IC50 at CDK2/Cyclin E1, in the assay with Kuramochi cells RB-WT and with Kuramochi cells RB-KO were at most 0.5 µM, above 10 µM and above 10 µM, respectively.
As to `CC(C)(C(=O)N1CC2(CN(C(=O)c3cnn(Cc4ccc(F)cc4)c3)CC2COCc2cc(F)cc(C3CCC(F)(F)CC3)c2C(=O)O)C1)C(F)(F)F` (stereo not drawn) [I′-68, 2-(4,4-difluorocyclohexyl)-4-fluoro-6-(((6-(1-(4-fluorobenzyl)-1H-pyrazole-4-carbonyl)-2-(3,3,3-trifluoro-2,2-dimethylpropanoyl)-2,6-diazaspiro[3.4]octan-8-yl)methoxy)methyl)benzoic acid], the figures for the IC50 on CDK2/Cyclin E1, in the assay with Kuramochi cells RB-WT and in the assay on Kuramochi cells RB-KO were at most 0.5 µM, 5 to 10 µM and above 10 µM, respectively.
Regarding `CC1(C)C[C@@H]1C(=O)N1CC2(CN(C(=O)c3cnn(Cc4ccc(F)cc4)c3)CC2/C=C\Cc2cccc(C3CCC(F)(F)CC3)c2C(=O)O)C1` (stereo partly drawn) [I′-69], the IC50 was above 10 µM on CDK2/Cyclin E1, 5 to 10 µM in the assay with Kuramochi cells RB-WT and above 10 µM in the assay on Kuramochi cells RB-KO.
Consider `CC1(C)C[C@@H]1C(=O)N1CC2(CN(C(=O)c3cnn(Cc4ccc(F)cc4)c3)CC2COCc2cccc(C3CCC(F)(F)CC3)c2-c2nn[nH]n2)C1` (stereo partly drawn) [I′-70, (8-(((3-(4,4-difluorocyclohexyl)-2-(2H-tetrazol-5-yl)benzyl)oxy)methyl)-2-((S)-2,2-dimethylcyclopropane-1-carbonyl)-2,6-diazaspiro[3.4]octan-6-yl)(1-(4-fluorobenzyl)-1H-pyrazol-4-yl)methanone], for which the IC50 is at most 0.5 µM at CDK2/Cyclin E1, above 10 µM with Kuramochi cells RB-WT and above 10 µM with Kuramochi cells RB-KO.
As to `CC(C)(C(=O)N1CC2(C1)CN(c1cc(F)c(F)c3ncsc13)C[C@H]2COCc1cccc(C2CCC(F)(F)CC2)c1C(=O)O)C(F)(F)F` [I′-71, (S)-2-(((6-(4,5-difluorobenzo[d]thiazol-7-yl)-2-(3,3,3-trifluoro-2,2-dimethylpropanoyl)-2,6-diazaspiro[3.4]octan-8-yl)methoxy)methyl)-6-(4,4-difluorocyclohexyl)benzoic acid], the values for the IC50 on CDK2/Cyclin E1, in the assay on Kuramochi cells RB-WT and in the assay with Kuramochi cells RB-KO were at most 0.5 µM, 5 to 10 µM and above 10 µM, respectively.
Turning to `CC1(C)C[C@@H]1C(=O)N1CC2(C1)CN(c1cc(F)c(F)c3ncsc13)C[C@H]2COCc1cccc(C2CCC(F)(F)CC2)c1C(=O)O` [I′-72, 2-((((S)-6-(4,5-difluorobenzo[d]thiazol-7-yl)-2-((S)-2,2-dimethylcyclopropane-1-carbonyl)-2,6-diazaspiro[3.4]octan-8-yl)methoxy)methyl)-6-(4,4-difluorocyclohexyl)benzoic acid], the IC50 on CDK2/Cyclin E1 is at most 0.5 µM; in the assay with Kuramochi cells RB-WT it was at most 0.5 µM; in the assay on Kuramochi cells RB-KO, above 10 µM.
Turning to `O=C(O)c1c(COCC2CN(C(=O)c3cnn(Cc4ccc(F)cc4)c3)CC23CN(C(=O)C2(C(F)(F)F)CC2)C3)cccc1-c1ccc(Cl)cc1F` (stereo not drawn) [I′-73], the IC50 at CDK2/Cyclin E1 is at most 0.5 µM; in the assay on Kuramochi cells RB-WT it was at most 0.5 µM; with Kuramochi cells RB-KO, above 10 µM.
For the molecule `O=C(O)c1ccccc1Cn1cc(C(=O)N2CC(COCc3cccc(C4CCC(C(F)(F)F)CC4)c3OC(F)F)C3(C2)CN(C(=O)C2(C(F)(F)F)CC2)C3)cn1` (stereo not drawn) [I′-74, 2-((4-(8-(((2-(difluoromethoxy)-3-(4-(trifluoromethyl)cyclohexyl)benzyl)oxy)methyl)-2-(1-(trifluoromethyl)cyclopropane-1-carbonyl)-2,6-diazaspiro[3.4]octane-6-carbonyl)-1H-pyrazol-1-yl)methyl)benzoic acid], the IC50 at CDK2/Cyclin E1 was at most 0.5 µM; in the assay on Kuramochi cells RB-WT, above 10 µM; in the assay with Kuramochi cells RB-KO it was above 10 µM.
Take `CC1(C)C[C@@H]1C(=O)N1CC2(CN(C(=O)c3cnn(Cc4ccc(F)cc4)c3)CC2COCc2cccc(C3CCC(F)(F)CC3)c2C#N)C1` (stereo partly drawn) [I′-75, 2-(4,4-difluorocyclohexyl)-6-(((2-((S)-2,2-dimethylcyclopropane-1-carbonyl)-6-(1-(4-fluorobenzyl)-1H-pyrazole-4-carbonyl)-2,6-diazaspiro[3.4]octan-8-yl)methoxy)methyl)benzonitrile]: the IC50 on CDK2/Cyclin E1 is at most 0.5 µM; in the assay with Kuramochi cells RB-WT, above 10 µM; in the assay with Kuramochi cells RB-KO, above 10 µM.
As to `CC(C)(C(=O)N1CC2(CN(C(=O)c3cnn(Cc4ccc(F)cc4)c3)CC2COCc2cccc(C3CCC(F)(F)CC3)c2C(=O)O)C1)C(F)(F)F` (stereo not drawn) [I′-76], the IC50 on CDK2/Cyclin E1 was at most 0.5 µM; in the assay on Kuramochi cells RB-WT, 0.5 to 5 µM; in the assay with Kuramochi cells RB-KO it was 5 to 10 µM.
As to `Cc1cc(F)ccc1-c1cccc(COCC2CN(C(=O)c3cnn(Cc4ccc(F)cc4)c3)CC23CN(C(=O)C2(C(F)(F)F)CC2)C3)c1C(=O)O` (stereo not drawn) [I′-77, 4′-fluoro-3-(((6-(1-(4-fluorobenzyl)-1H-pyrazole-4-carbonyl)-2-(1-(trifluoromethyl)cyclopropane-1-carbonyl)-2,6-diazaspiro[3.4]octan-8-yl)methoxy)methyl)-2′-methyl-[1,1′-biphenyl]-2-carboxylic acid], the figures for the IC50 on CDK2/Cyclin E1, in the assay on Kuramochi cells RB-WT and in the assay on Kuramochi cells RB-KO were at most 0.5 µM, 5 to 10 µM and above 10 µM, respectively.
For `CC1(C)C[C@@H]1C(=O)N1CC2(CN(C(=O)c3cnn(Cc4ccc(F)cc4)c3)CC2C#CCc2cccc(C3CCC(F)(F)CC3)c2C(=O)O)C1` (stereo partly drawn) [I′-78] the same measures were above 10 µM, above 10 µM and above 10 µM.
On the same counts, the results for `CC(C)(C)OC(=O)c1c(COCC2CN(C(=O)c3cnn(Cc4ccc(F)cc4)c3)CC23CN(C(=O)[C@H]2CC2(C)C)C3)cccc1C1CCC(F)(F)CC1` (stereo partly drawn) [I′-79, tert-butyl 2-(4,4-difluorocyclohexyl)-6-(((2-((S)-2,2-dimethylcyclopropane-1-carbonyl)-6-(1-(4-fluorobenzyl)-1H-pyrazole-4-carbonyl)-2,6-diazaspiro[3.4]octan-8-yl)methoxy)methyl)benzoate] are at most 0.5 µM, above 10 µM and above 10 µM.
For `CC1(C)C[C@@H]1C(=O)N1CC2(CN(C(=O)c3cnn(Cc4ccc(F)cc4)c3)CC2COCc2cccc(C3CCC(F)(F)CC3)c2C(=O)O)C1` (stereo partly drawn) [I′-80, 2-(4,4-difluorocyclohexyl)-6-(((2-((S)-2,2-dimethylcyclopropane-1-carbonyl)-6-(1-(4-fluorobenzyl)-1H-pyrazole-4-carbonyl)-2,6-diazaspiro[3.4]octan-8-yl)methoxy)methyl)benzoic acid], the values for the IC50 at CDK2/Cyclin E1, in the assay on Kuramochi cells RB-WT and in the assay with Kuramochi cells RB-KO were at most 0.5 µM, 0.5 to 5 µM and above 10 µM, respectively.
Take `CC1(C)C[C@@H]1C(=O)N1CC2(CN(C(=O)c3cnn(Cc4ccc(F)cc4)c3)CC2COCc2cccc(Br)c2C(=O)O)C1` (stereo partly drawn) [I′-81]: the IC50 on CDK2/Cyclin E1 is 0.5 to 5 µM; in the assay on Kuramochi cells RB-WT it was above 10 µM; with Kuramochi cells RB-KO, above 10 µM.
For `O=C(O)c1c(O)cc(COCC2CN(C(=O)c3cnn(Cc4ccc(C(F)(F)F)cc4)c3)CC23CN(C(=O)C2(C(F)(F)F)CC2)C3)cc1C1CCC(F)(F)CC1` (stereo not drawn) [I′-82], the IC50 is 5 to 10 µM on CDK2/Cyclin E1, above 10 µM in the assay with Kuramochi cells RB-WT and above 10 µM with Kuramochi cells RB-KO.
Take `CC(C)(C)OC(=O)c1c(COCC2CN(C(=O)c3cnn(Cc4ccc(F)cc4C(F)(F)F)c3)CC23CN(C(=O)C2(C(F)(F)F)CC2)C3)cccc1C1CCC(C(F)(F)F)CC1` (stereo not drawn) [I′-83]: the IC50 was 0.5 to 5 µM at CDK2/Cyclin E1, above 10 µM in the assay with Kuramochi cells RB-WT and above 10 µM in the assay with Kuramochi cells RB-KO.
As for `CC1(C)C[C@@H]1C(=O)N1CC2(CN(C(=O)c3cnn(Cc4ccc(F)cc4)c3)CC2COCc2cccc(C3CCC(C(F)(F)F)CC3)c2C(N)=O)C1` (stereo partly drawn) [I′-84, 2-(((2-((S)-2,2-dimethylcyclopropane-1-carbonyl)-6-(1-(4-fluorobenzyl)-1H-pyrazole-4-carbonyl)-2,6-diazaspiro[3.4]octan-8-yl)methoxy)methyl)-6-(4-(trifluoromethyl)cyclohexyl)benzamide], the IC50 is at most 0.5 µM at CDK2/Cyclin E1, above 10 µM in the assay with Kuramochi cells RB-WT and above 10 µM with Kuramochi cells RB-KO.
